Experimental data published in patent publication US12319655B2, “RAF kinase inhibitors and methods of use thereof” (Deciphera Pharmaceuticals, LLC, priority 2021, dated 2025).

Columns and labels:
[1] = target: B-Raf (V600E) (SEQ. ID NO: 4) kinase (Homo sapiens (Human), UniProt P15056, V600E); test: Biochemical Assay for B-Raf (V600E) (1); settings: Table J, BRAF V600E, assay version (1); read-out: BRAF VE (1) IC50
Procedure, shortened: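 Serially diluted compounds tested against 0.03 nM enzyme with 30.1 nM MEK substrate and 1 mM ATP (Tris pH 7.5, 15 mM MgCl2), ATP use coupled to NADH loss via PK/LDH. A340 monitored continuously 6 h, 30 °C; IC50 fitted (four-parameter) from the 3–4 h rate versus no-compound and known-inhibitor controls.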

[2] = target: A-Raf kinase (SEQ. ID No: 1) (Homo sapiens (Human), UniProt P10398, Y301D/Y302D); test: Biochemical Assay for A-Raf (1); settings: Table J, assay version (1); read-out: ARAF (1) IC50
Procedure, shortened: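 IC50 values were derived by four-parameter sigmoidal fitting of percent inhibition, calculated from reaction rates over the 4–5 h window. Absorbance at 340 nm was tracked for 6 h at 30 °C via coupled PK/LDH NADH depletion. Conditions: 1 mM ATP, 30.1 nM MEK substrate, 5.55 nM A-Raf (Y301D/Y302D), Tris pH 7.5, 1% DMSO.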

Miapaca-2 cells = test: MiaPaca-2 Cell Proliferation Assay (1); assay type: cell-based; settings: Homo sapiens, MIA PaCa-2, single agent, read-out: MiaPaca2 (1) IC50
Description: MiaPaca-2 Cell Proliferation Assay (1)
Miapaca-2 cells (catalog #CRL-1420) are obtained from the American Type Culture Collect (ATTC, Manassas, VA). Briefly, cells were grown in DMEM supplemented with 10% characterized fetal bovine serum (Invitrogen, Carlsbad, CA), 2.5% New Zealand sourced horse serum and 1% Penicillin/Streptomycin/L-Glutamine at 37° C., 5% CO2, and 95% humidity. Cells are expanded until reaching 70-95% confluency at which point they are sub-cultured or harvested for assay use. A serial dilution of test compound is dispensed into a 96-well black clear bottom plate in triplicate. Three thousand cells are added per well in 200 μL complete growth medium in the 96-well plate. Plates are incubated for 67-72 h at 37° C., 5% CO2, and 95% humidity. At the end of the incubation, 40 μL of a 440 μM solution of resazurin (Sigma, St. Louis, MO) in PBS is added to each well of the plate and plates are incubated for an additional 5-6 h at 37° C., 5% CO2, and 95% humidity. Plates are read on a Synergy2 or equivalent reader (Biotek, Winooski VT) using an excitation of 540 nm and an emission of 600 nm. Data is analyzed using Prism software (GraphPad, San Diego, CA) to calculate IC50 values.

A-Raf kinase (SEQ. ID No: 1), sequence (P10398 other isoform, or with tags, fused parts or gaps Y301D (already in the parent)/Y302D (already in the parent)): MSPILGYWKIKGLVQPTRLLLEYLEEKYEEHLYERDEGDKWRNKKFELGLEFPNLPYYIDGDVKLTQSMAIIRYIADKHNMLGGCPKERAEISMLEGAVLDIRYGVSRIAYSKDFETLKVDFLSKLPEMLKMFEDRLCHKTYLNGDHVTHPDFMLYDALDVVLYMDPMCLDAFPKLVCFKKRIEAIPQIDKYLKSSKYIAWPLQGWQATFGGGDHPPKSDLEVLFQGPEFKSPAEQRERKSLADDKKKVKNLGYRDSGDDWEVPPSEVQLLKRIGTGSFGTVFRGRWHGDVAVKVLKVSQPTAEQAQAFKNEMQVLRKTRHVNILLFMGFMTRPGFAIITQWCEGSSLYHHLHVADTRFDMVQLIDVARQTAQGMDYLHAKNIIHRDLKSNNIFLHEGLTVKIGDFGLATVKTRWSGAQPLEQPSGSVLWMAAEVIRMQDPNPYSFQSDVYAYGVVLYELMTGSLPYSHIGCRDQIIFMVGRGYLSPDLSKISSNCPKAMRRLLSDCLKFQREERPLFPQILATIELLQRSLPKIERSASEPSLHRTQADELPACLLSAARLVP
B-Raf (V600E) (SEQ. ID NO: 4) kinase, sequence (P15056 416-766 V600E): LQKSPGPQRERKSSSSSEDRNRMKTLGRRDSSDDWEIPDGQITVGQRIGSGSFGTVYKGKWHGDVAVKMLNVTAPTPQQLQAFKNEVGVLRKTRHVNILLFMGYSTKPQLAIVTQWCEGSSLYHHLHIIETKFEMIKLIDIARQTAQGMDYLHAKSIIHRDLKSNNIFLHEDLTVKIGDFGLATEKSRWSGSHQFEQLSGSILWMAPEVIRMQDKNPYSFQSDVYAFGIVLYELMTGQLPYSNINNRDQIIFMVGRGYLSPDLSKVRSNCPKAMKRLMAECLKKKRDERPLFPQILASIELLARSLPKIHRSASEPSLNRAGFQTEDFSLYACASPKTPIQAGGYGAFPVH

| Structure (SMILES) | IC50 [1] [nM] | IC50 [2] [nM] | IC50 (Miapaca-2 cells) [nM] |
| --- | --- | --- | --- |
| CC(=O)Nc1cc(-c2cc(-c3cc(NC(=O)c4ccnc(C(F)(F)F)c4)ccc3C)cc(C)n2)ccn1 [Example 5] | ≤ 100 | 1000 to 10000 | 1000 to 10000 |
| CC(=O)Nc1cc(-c2cc(-c3cc(NC(=O)c4ccnc(C(F)(F)F)c4)ccc3C)ccn2)ccn1 [Example 6] | ≤ 100 | 100 to 500 | 1000 to 10000 |
| CCOc1cc(-c2cc(NC(=O)c3ccnc(C(F)(F)F)c3)ccc2C)cc(-c2ccnc(NC(C)=O)c2)n1 [Example 8] | ≤ 100 | 1000 to 10000 | 1000 to 10000 |
| CC(=O)Nc1cc(-c2cc(-c3cc(NC(=O)c4ccnc(C(F)(F)F)c4)c(F)cc3C)cc(OC(C)C)n2)ccn1 [Example 10] | ≤ 100 | 1000 to 10000 | – |
| CC(=O)Nc1cc(-c2cc(-c3cc(NC(=O)c4ccnc(C(F)(F)F)c4)ccc3C)cc(=O)n2C)ccn1 [Example 11] | ≤ 100 | 1000 to 10000 | 1000 to 10000 |
| Cc1ncc(NC(=O)c2ccnc(C(F)(F)F)c2)cc1-c1cccc(-c2ccnc(N)c2)c1 [Example 94] | ≤ 100 | 1000 to 10000 | 1000 to 10000 |
| Cc1ncc(NC(=O)c2cccc(C(F)(F)F)c2)cc1-c1cccc(-c2ccnc(NC(=O)CC#N)c2)c1 [Example 97] | ≤ 100 | 500 to 1000 | 1000 to 10000 |
| Cc1ccc(NC(=O)c2ccnc(C(F)(F)F)c2)cc1-c1cncc(-c2ccnc(NC(=O)CC#N)c2)n1 [Example 98] | ≤ 100 | 100 to 500 | 1000 to 10000 |
| COCC(=O)Nc1cc(-c2cncc(-c3cc(NC(=O)c4ccnc(C(F)(F)F)c4)ccc3C)n2)ccn1 [Example 99] | ≤ 100 | 1000 to 10000 | 1000 to 10000 |
| Cc1ccc(NC(=O)c2ccnc(C(F)(F)F)c2)cc1-c1cncc(-c2ccnc(NC(=O)CN(C)C)c2)n1 [Example 100] | ≤ 100 | 1000 to 10000 | 1000 to 10000 |
| Cc1ccc(NC(=O)c2ccnc(C(C)(C)C#N)c2)cc1-c1ccnc(-c2ccnc3c2CC(=O)N3)n1 [Example 101] | ≤ 100 | 1000 to 10000 | 1000 to 10000 |
| CC(=O)Nc1cc(-c2cc(-c3cc(NC(=O)c4ccnc(C(F)(F)F)c4)ccc3C)cn(CCO)c2=O)ccn1 [Example 102] | ≤ 100 | 1000 to 10000 | 1000 to 10000 |
| Cc1ncc(NC(=O)c2ccnc(C(C)(C)C#N)c2)cc1-c1cccc(-c2ccnc3c2CC(=O)N3)c1 [Example 105] | ≤ 100 | 1000 to 10000 | 1000 to 10000 |
| CNC(=O)c1cc(-c2cccc(-c3cc(NC(=O)c4ccnc(C(F)(F)F)c4)ccc3C)c2)ncn1 [Example 106] | ≤ 100 | 1000 to 10000 | 1000 to 10000 |
| CC(=O)Nc1cc(-c2nccc(-c3cc(NC(=O)c4ccnc(C(F)(F)F)c4)c(F)cc3C)n2)ccn1 [Example 107] | ≤ 100 | 500 to 1000 | 1000 to 10000 |
| Cc1ccc(NC(=O)c2cccc(C(C)(C)C#N)c2)cc1-c1cc(OCCO)nc(-c2ccnc3c2CC(=O)N3)c1 [Example 108] | ≤ 100 | 1000 to 10000 | 1000 to 10000 |
| Cc1ccc(NC(=O)c2ccnc(C(C)(C)C#N)c2)cc1-c1cccc(-c2ncnc3c2CC(=O)N3)c1 [Example 109] | ≤ 100 | 1000 to 10000 | 1000 to 10000 |
| Cc1ncc(NC(=O)c2ccnc(C(C)(C)C#N)c2)cc1-c1cccc(-c2ncnc3c2CC(=O)N3)c1 [Example 110] | ≤ 100 | 1000 to 10000 | 1000 to 10000 |
| Cc1ncc(NC(=O)c2ccnc(C(C)(C)C#N)c2)cc1-c1cccc(-c2ccnc3[nH]cnc23)c1 [Example 111] | ≤ 100 | 1000 to 10000 | 1000 to 10000 |
| CC(=O)Nc1cc(-c2cc(-c3cc(NC(=O)c4ccnc(C(C)(C)C#N)c4)ccc3C)cn(C)c2=O)ccn1 [Example 113] | ≤ 100 | 1000 to 10000 | 1000 to 10000 |
| CC(=O)Nc1cc(-c2cccc(-c3cc(NC(=O)c4ccnc(C(F)(F)F)c4)c(F)cc3C)c2)ncn1 [Example 114] | ≤ 100 | 1000 to 10000 | 1000 to 10000 |
| COc1cc(C(=O)Nc2ccc(C)c(-c3cncc(-c4ccnc(NC(C)=O)c4)n3)c2)ccc1F [Example 120] | ≤ 100 | 1000 to 10000 | 1000 to 10000 |

| Structure (SMILES) | IC50 [1] [nM] | IC50 [2] [nM] | IC50 (Miapaca-2 cells) [nM] |
| --- | --- | --- | --- |
| CC(=O)Nc1cc(-c2cncc(-c3cc(NC(=O)c4ccc(Cl)c(C(F)(F)F)c4)ccc3C)n2)ccn1 [Example 121] | ≤ 100 | 1000 to 10000 | 1000 to 10000 |
| Cc1ccc(NC(=O)c2ccnc(C(F)(F)F)c2)cc1-c1ccnc(-c2ccnc(N)c2)n1 [Example 122] | ≤ 100 | 1000 to 10000 | 1000 to 10000 |
| Cc1ccc(NC(=O)c2ccnc(C(F)(F)F)c2)cc1-c1cncc(-c2ccnc(NC=O)c2)n1 [Example 123] | ≤ 100 | 1000 to 10000 | 1000 to 10000 |
| CC(=O)Nc1cc(-c2cncc(-c3cc(NC(=O)c4cccc(C(C)(C)C#N)c4)ccc3C)n2)ccn1 [Example 125] | ≤ 100 | 1000 to 10000 | 500 to 1000 |
| Cc1ncc(NC(=O)c2ccnc(C(C)(C)C#N)c2)cc1-c1cccc(-c2ncnc3[nH]ncc23)c1 [Example 129] | ≤ 100 | 1000 to 10000 | 1000 to 10000 |
| COCC(=O)Nc1cc(-c2cccc(-c3cc(NC(=O)c4ccnc(C(F)(F)F)c4)cnc3C)n2)ccn1 [Example 130] | ≤ 100 | 1000 to 10000 | – |
| Cc1ncc(NC(=O)c2ccnc(C3CC3)c2)cc1-c1cccc(-c2ncnc3[nH]ncc23)c1 [Example 131] | ≤ 100 | 1000 to 10000 | 1000 to 10000 |
| CC(=O)Nc1nccc(-c2cccc(-c3cc(NC(=O)c4ccnc(C(F)(F)F)c4)ccc3C)c2)c1C#N [Example 132] | ≤ 100 | 1000 to 10000 | 1000 to 10000 |
| Cc1ccc(NC(=O)c2ccnc(C(C)(C)C#N)c2)cc1-c1cccc(-c2ccnc3[nH]ccc23)c1 [Example 133] | ≤ 100 | 1000 to 10000 | – |
| CNC(=O)c1cc(-c2cncc(-c3cc(NC(=O)c4cc(C(F)(F)F)ccn4)ccc3C)n2)ccn1 [Example 135] | ≤ 100 | 1000 to 10000 | 1000 to 10000 |
| CNC(=O)c1cc(-c2cncc(-c3cc(NC(=O)c4cccc(C(C)(C)C#N)c4)ccc3C)n2)ccn1 [Example 136] | ≤ 100 | 1000 to 10000 | 1000 to 10000 |
| CNC(=O)c1cc(-c2cncc(-c3cc(NC(=O)c4ccnc(C5CC5)c4)ccc3C)n2)ccn1 [Example 139] | ≤ 100 | 1000 to 10000 | 1000 to 10000 |
| CC(=O)Nc1cc(-c2cncc(-c3cc(NC(=O)c4ccnc(C(C)(C)C#N)c4)ccc3C)n2)ccn1 [Example 140] | ≤ 100 | 500 to 1000 | 500 to 1000 |
| Cc1ccc(NC(=O)c2ccnc(C(C)(C)C#N)c2)cc1-c1cncc(-c2ccnc(N)c2)n1 [Example 141] | ≤ 100 | 1000 to 10000 | 1000 to 10000 |
| COCC(=O)Nc1cc(-c2cncc(-c3cc(NC(=O)c4ccnc(C(C)(C)C#N)c4)ccc3C)n2)ccn1 [Example 142] | ≤ 100 | 1000 to 10000 | 1000 to 10000 |
| COCCNc1cc(-c2cncc(-c3cc(NC(=O)c4ccnc(C(C)(C)C#N)c4)ccc3C)n2)ccn1 [Example 143] | ≤ 100 | 1000 to 10000 | 1000 to 10000 |
| CC(=O)Nc1cc(-c2cncc(-c3cc(NC(=O)c4ccnc(C5CC5)c4)ccc3C)n2)ccn1 [Example 145] | ≤ 100 | 500 to 1000 | 1000 to 10000 |
| CC(=O)Nc1cc(-c2cncc(-c3cc(NC(=O)c4ccnc(C5(C#N)CC5)c4)ccc3C)n2)ccn1 [Example 146] | ≤ 100 | 500 to 1000 | 1000 to 10000 |
| Cc1ccc(NC(=O)c2ccnc(C(C)(C)C#N)c2)cc1-c1cncc(-c2ccnc(C(=O)NC3CC3)c2)n1 [Example 148] | ≤ 100 | 1000 to 10000 | 1000 to 10000 |
| CC(=O)Nc1cc(-c2nccc(-c3cc(NC(=O)c4cccc(C(C)(C)C#N)c4)ccc3C)n2)ccn1 [Example 150] | ≤ 100 | 100 to 500 | 1000 to 10000 |
| CC(=O)Nc1cc(-c2nccc(-c3cc(NC(=O)c4ccnc(C5(C#N)CC5)c4)ccc3C)n2)ccn1 [Example 151] | ≤ 100 | 100 to 500 | 1000 to 10000 |
| CNC(=O)c1cc(-c2cc(-c3cc(NC(=O)c4ccnc(C(C)(C)C#N)c4)ccc3C)cc(C3CC3)n2)ccn1 [Example 163] | ≤ 100 | 1000 to 10000 | – |
